Literature values, collected in article PMC11172375, “Preclinical Evaluation of Biodistribution and Toxicity of [^211At]PSMA-5 in Mice and Primates for the Targeted Alpha Therapy against Prostate Cancer” (International Journal of Molecular Sciences, 2024).

Assays:
[1] = set-up: method as in PMID 27230930; conditions: mice treated with 1.5MBq (75MBq/kg); cited from earlier work
[2] = system: metastatic castration-resistant prostate cancer; set-up: method as in PMID 34161051; conditions: patients with mCRPC previously treated with ARPI and taxane, VISION trial; cited from earlier work
[3] = system: metastatic castration-resistant prostate cancer; set-up: method as in doi:10.1200/JCO.2022.40.6_suppl.TPS211; conditions: taxane-naïve patients with mCRPC, PSMAfore trial; cited from earlier work
[4] = system: prostate cancer; set-up: method as in PMID 27390158, PMID 38218192, PMID 33293081, PMID 33008928, PMID 37247612; conditions: patients resistant to beta therapy with [177Lu]PSMA-617; cited from earlier work
[5] = cited from earlier work

For `O=C(O)CC[C@H](NC(=O)NC(CCCCNC(=O)c1ccc([211At])cc1)C(=O)O)C(=O)O` (stereo partly drawn) [^211At-6, (2S)-2-(3-(1-Carboxy-5-(4-211At-Astatobenzamido)Pentyl)Ureido)-Pentanedioic Acid], the kidney toxicity [1] is listed as “late nephropathy with loss of the proximal tubules”.
In the case of `O=C([O-])CN1CCN(CC(=O)[O-])CCN(CC(=O)NCC2CCC(C(=O)N[C@@H](Cc3ccc4ccccc4c3)C(=O)NCCCC[C@H](NC(=O)N[C@@H](CCC(=O)O)C(=O)O)C(=O)O)CC2)CCN(CC(=O)[O-])CC1.[177Lu+3]` (stereo partly drawn) [[^177Lu]PSMA-617], the “overall survival compared to the standard of care” value [2] is given as “significantly extended overall survival” and the “radiographic progression-free survival compared to ARPI changes” value [3] is given as “prolong radiographic progression-free survival”.
In the case of `O=C([O-])CC[C@H](NC(=O)N[C@@H](CCCCNC(=O)[C@H](Cc1ccc2ccccc2c1)NC(=O)C1CCC(CNC(=O)CN2CCN(CC(=O)[O-])CCN(CC(=O)[O-])CCN(CC(=O)[O-])CC2)CC1)C(=O)[O-])C(=O)[O-].[225Ac].[H+].[H+].[H+]` (stereo partly drawn) [[^225Ac]PSMA-617], the “efficacy of alpha therapy” value [4] is given as “proven effective”.
For `[211At-].[Na+]` [[^211At]NaAt], the “uptake in the thyroid” value ([5]; 3 h post-administration) is listed as 509 %ID/g and the thyroid histology ([5]; even in low-dose groups (5 MBq/kg)) is listed as “thyroid ablation effects”.
